Experimental data: paper PMC4428838, “Optimization of Invasion-Specific Effects of Betulin Derivatives on Prostate Cancer Cells through Lead Development” (PLoS ONE, 2015)

Experiments:
Format in all cases: cell-based
PC-3 [1] = assay: Wound healing assay in 2D monolayer culture (IncuCyte); settings: for wound healing 50% cut-off concentration: 2D monolayer, printed in Fig 4D; for reduction of wound closure: at 300 nM, after 64 hours, 2D
Protocol: Cells were cultured on ImageLock plates (Essen Bioscience, Ann Arbor, MI, USA) until fully confluent and scratched with a WoundMaker instrument (Essen Bioscience). All detached cells were removed by aspiration and medium supplemented with experimental compounds was added. Wound closure was monitored and quantified with the IncuCyte live-cell imager (Essen Bioscience).
A) Graph showing the transition of PC-3 spheroids from symmetrical acini to irregular invasive structures over 6 days, as measured by general symmetry (roundness %). […] B) Conventional wound healing assay performed in monolayer culture over a period of 64 hours. Wound closure is measured as relative wound density i.e. percentage of original wound area reclaimed by migrating cells. […] (EPS) Click here for additional data file.

[2] = test system: PC-3, LNCaP, LAPC-4, Ep156T; assay: Primary and secondary 3D screens combined across the cell line panel; settings: cell lines other than PC-3, 3D, 300 nM or lower (except compound 15)
Protocol: Fig 5 Secondary 3D screens. Experimental betulin derivatives and control compounds were tested across a panel of prostate cancer lines (LNCaP, LAPC-4) and non-transformed, prostate epithelial cells (EP156T) in 3D culture. A) The dendrogram is based on three main morphological parameters and combines all data from primary and secondary 3D screens. Effective compound treatments are indicated in red and yellow, yellow being the most invasion-specific. B) Boxplots showing the impact of selected compounds on spheroid size (Area). Data scaling: as described in Fig 4 C) Effects of all betulin derivatives and control compounds on cell death (number of dead cells).
In order to assist functional categorization of our betulin derivatives, we combined all data into a single dendrogram, shown in Fig 5A. In addition, multiparametric representation of all experimental data as a single heatmap is highly informative (S5 Fig) and a potent way to illustrate the effects of compounds on growth, structural complexity and cell death across multiple cell lines. […] However, at lower concentrations, these compounds may act as potent and specific inhibitors of cell invasion and motility.
Supplementary file pone.0126111.s005.eps: S5 Fig Primary and secondary screens. […] The main read-outs (Area = Size, Complexity = Invasiveness, Red = Cell death) are shown in their own columns. Data scaling: DMSO control has been given a value 0 whereas paclitaxel control is valued -100 or 100 depending on the read-out. Color key is located in the upper right corner. (EPS) Click here for additional data file.
Supplementary file pone.0126111.s006.tif: S6 Fig Confocal images from primary and secondary betulin screens. Viable cells have been stained with calcein AM (green) and dead cells with ethidium homodimer-2 (red) (5× objective, maximum intensity projections, scale bar = 100 μm). (TIF) Click here for additional data file.

PC-3 [3] = assay: cells; settings: Homo sapiens, PC-3; 2D monolayer, 72 h, Harmony software; no unit in the table, μM; read-out: Estimated EC50 values for cell proliferation, PC-3
Protocol: (§1) To rule out that cytotoxic and antimitotic effects were misinterpreted as anti-invasive, we tested compounds 4, 5, 6, 19 and 20 for inhibition of proliferation and induction of cell death in a 2D monolayer culture (summarized in Fig 6). […] LNCaP cells were more sensitive, with growth inhibition/cytotoxicity starting at 3 μM. The effects on non-transformed, apoptosis-sensitive Ep156T cells were strongest. Here, cytotoxic effects were typically observed already at 0.3–1 μM. […] We further calculated EC50 values for proliferation, apoptosis and cell death for each compound, using the PerkinElmer Harmony software (method validation shown in S7 Fig). The only assay that produced results consistent with those of the betulin derivatives tested in the 2D cell culture model was the proliferation assay (Table 1).
(§2) Fig 6 Cytotoxicity tests performed in 2D monolayer culture. A) Cell proliferation/cell number, B) programmed cell death (apoptosis), and C) number of dead cells were assessed by conventional assays, combined with high-content microscopy (Operetta). […] Proliferation was measured as the total number of nuclei (= cells), apoptosis as ratio of caspase-3 positive versus all cells, and cell death as ethidium homodimer-2 positive nuclei versus all cells.
(§3) Cells were transferred into CellCarrier 384-well plates (PerkinElmer, Waltham, MA, USA) at a density of 1250 cells/well, using Multidrop dispenser (ThermoFisher Scientific, Waltham, MA, USA). After overnight incubation at 37°C experimental, compounds were added with an ATS Acoustic Transfer System (EDC Biosystems, Fremont, CA, USA). For Ep156T cells the protocol was done in reverse with compounds dispensed before seeding of cells. Fluorescent markers were dispensed in culture medium using ATS system after 72-h compound exposure. Nuclei were stained with cell-permeable Hoechst 33342 (Molecular Probes, Eugene, OR, USA), dead cells with ethidium homodimer-2 (Invitrogen, Carlsbad, CA, USA) and apoptotic cells with NucView caspase-3 detection reagent (Essen Bioscience, Ann Arbor, MI, USA). Cells were imaged with Operetta high-content imager (PerkinElmer, Waltham, MA, USA). Proliferation was measured from the number of nuclei (cells), cell death and apoptosis from positive cells/total cells ratio using Harmony image analysis software (PerkinElmer, Waltham, MA, USA). EC50 values were also assessed with the Harmony software.

EP156T = assay: Proliferation assay in 2D monolayer culture (number of nuclei, Operetta high-content imager, 72 h); settings: Harmony software, no unit in the table, μM, read-out: Estimated EC50 values for cell proliferation, EP156T
Protocol: as §1, with “6). A broad range of compound concentrations (1 nM to 30 μM) were used for PC-3, LNCaP and Ep156T cell lines, and analyzed with the PerkinElmer Operetta high-content imager.” for “6).”
as §2, §3

LNCaP = assay: as above; settings: Homo sapiens, Harmony software, no unit in the table, μM, read-out: Estimated EC50 values for cell proliferation, LNCaP
Protocol: as §1, §2, §3

[4] = test system: actin cytoskeleton of PC-3, LNCaP and Ep156T spheroids; assay: F-actin cytoskeleton (phalloidin staining) in 3D spheroids; settings: after 48 hours of exposure; seen in Ep156T acini and PC-3 spheroids, not LNCaP
Text: […] […] For phenotypic comparisons, we tested a panel of reference compounds targeting Akt, Rac, ROCK, Src, and other pathways, broadly linked to the actin cytoskeleton.
Fig 8 3D morphologies of prostate spheroids, exposed to selected betulin derivatives and captured with a confocal microscope. Actin cytoskeleton (filamentous or F-actin) is stained green (phalloidin), nuclei with a red dye (confocal microscope images, 40× objective, scale bar shown for each panel on the right lower corner).

Structure (SMILES)	wound healing 50% cut-off concentration (PC-3 [1])	reduction of wound closure (PC-3 [1]) [%]	effects on the other cell lines at anti-invasive concentrations [2]	EC50 (PC-3 [3]) [µM]	EC50 (EP156T) [µM]	EC50 (LNCaP) [µM]	concentration required in 2D culture for effects comparable to 3D (PC-3 [1]; 2D wound healing)	organization of actin cytoskeleton in 3D spheroids [4]
CC(C)[C@@H]1CC[C@]2(C(=O)O)CC[C@]3(C)C(CCC4[C@@]5(C)Cc6cnoc6C(C)(C)C5CC[C@]43C)C12 (stereo partly drawn) [Compound 4]	ca. 0.3 μM	50	no noticeable effects on the other cell lines	55.9	0.2	93.1		
C=C(C)[C@@H]1CC[C@]2(C(=O)O)CC[C@]3(C)C(CCC4[C@@]5(C)Cc6cnoc6C(C)(C)C5CC[C@]43C)C12 (stereo partly drawn) [Compound 5]				9.5	0.22	64.6	higher than 1 μM	effectively disrupted the organization of actin cytoskeleton
C=C(C)[C@@H]1CC[C@]2(C(=O)O)CC[C@]3(C)C(CCC4[C@@]5(C)Cc6c[nH]nc6C(C)(C)C5CC[C@]43C)C12 (stereo partly drawn) [Compound 6]			no noticeable effects on the other cell lines	90.8	0.21	6.4		effectively disrupted the organization of actin cytoskeleton
C=C(C)[C@@H]1CC[C@]2(C(=O)O)CC[C@]3(C)C(CCC4[C@@]5(C)Cc6cccnc6C(C)(C)C5CC[C@]43C)C12 (stereo partly drawn) [Compound 19]			no noticeable effects on the other cell lines	86.9	0.18	0.9		
C=C(C)[C@@H]1CC[C@]2(C(=O)O)CC[C@]3(C)C(CCC4[C@@]5(C)Cc6ncccc6C(C)(C)C5CC[C@]43C)C12 (stereo partly drawn) [Compound 20]	ca. 0.3 μM	50	no noticeable effects on the other cell lines	66.9	0.19	132		effectively disrupted the organization of actin cytoskeleton
CC(=O)O[C@H]1C(=O)[C@@]2(C)[C@H]([C@H](OC(=O)c3ccccc3)[C@]3(O)C[C@H](OC(=O)[C@H](O)[C@@H](NC(=O)c4ccccc4)c4ccccc4)C(C)=C1C3(C)C)[C@]1(OC(C)=O)CO[C@@H]1C[C@@H]2O [Paclitaxel, paclitaxel, reference compound]				0.0012	0.0008	0.0006		
